For 15 compounds, melting point and IC50 results are on record in patent US6458806B1, “Aryl alkenamides derivatives as MCP-1 antagonists” (Millennium Pharmaceuticals, Inc., priority 1996, dated 2002).

Where a name gives a salt, the structure may show the parent alone.

The target of data set [1] is T1, MCP-1 receptor (Homo sapiens, UniProt P41597).
T1 construct: host or cells: THP-1 cell membranes
Briefly: MCP-1 binding assay (125I-MCP-1, THP-1 cell membranes). The following applies: 0.2 nM 125I-labeled MCP-1, averages of several or two experiments, read-out: Inhibition Of MCP-1 Binding IC50. The protocol: Membranes used in the MCP-1 binding assay were prepared from THP-1 cells (human monocytic cell line source—American Type Culture Collection, Tumor Immunology Bank #202, Rockville, Md., accession no. ATCC TIB 202). Cells were harvested by centrifugation and washed twice in ice-cold PBS (phosphate-buffered saline) and the cell pellet was frozen at −80° C. in some cases. Cells were resuspended in ice-cold lysis buffer 5mM HEPES (2-(4N-,[2-hydroxyethyl] piperazin-1-yl)-N′-(2-ethanesulfonic acid), pH 7.5, 2 mM EDTA (ethylenediaminetetraacetic acid), 5 ug/ml each leupeptin, aprotinin, chymostatin (protease inhibitors), and 100 ug/ml PMSF (phenylmethane sulfonyl fluoride—also a protease inhibitor)) at a concentration of 5×10^7 cells/ml. […] Typical binding assays used 10-20 ug/well of total membrane protein as determined with a standard protein assay (e.g. BioRad, Richmond, Calif.).
For binding, 10-20 ug total membrane protein were included in the binding reaction along with 0.2 nM I^125-labeled MCP-1 (Amersham, Arlington Heights, Ill.) with or without unlabeled competitor MCP-1 (Peprotech, Rocky Hill, N.J.) (at 250-500 nM). […] Filters were dried and counted in a Beta-Plate scintillation counter using standard scintillation fluid. […]
IC50s were calculated using a non-linear 3-parameter logistic curve fit. […]

T1 sequence (P41597 whole entry): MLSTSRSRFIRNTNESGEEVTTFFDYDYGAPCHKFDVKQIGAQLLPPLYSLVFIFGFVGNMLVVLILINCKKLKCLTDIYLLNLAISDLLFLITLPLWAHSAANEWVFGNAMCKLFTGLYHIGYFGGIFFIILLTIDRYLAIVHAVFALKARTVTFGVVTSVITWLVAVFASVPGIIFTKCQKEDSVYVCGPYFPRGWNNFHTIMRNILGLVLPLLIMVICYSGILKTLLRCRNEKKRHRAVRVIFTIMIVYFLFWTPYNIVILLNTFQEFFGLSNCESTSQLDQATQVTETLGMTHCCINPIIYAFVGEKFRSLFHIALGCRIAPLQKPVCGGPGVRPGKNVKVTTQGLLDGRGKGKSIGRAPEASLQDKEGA

`O=C(/C=C/C=C/c1ccc(Cl)cc1Cl)NCCCN1CCCCC1` [Example 17, (2E,4E)-5-(2,4-Dichloro-phenyl)-penta-2,4-dienoic Acid (3-piperidin-1-yl-propyl)-amide]: the melting point – broadly, the temperature of the solid-liquid transition – was in the range of 66 to 69 °C.
Still for that read-out and setting: in the case of `Cc1ccc(/C=C/C=C/C(=O)NCCCN2CCCCC2)cc1` [Example 9, (2E,4E)-5-p-Tolyl-penta-2,4-dienoic Acid (3-piperidin-1-yl-propyl)-amide] it was 40 to 50 °C; in that of `O=C(/C=C/C=C/c1ccc(-c2ccccc2)cc1)NCCCN1CCCCC1` [Example 14, (2E,4E)-5-Biphenyl-4-yl-penta-2,4-dienoic Acid (3-piperidin-1-yl-propyl)-amide], 165 to 168 °C.
Same read-out and setting: in the case of `O=C(/C=C/C=C/c1ccc([N+](=O)[O-])cc1)NCCCN1CCCCC1` [Example 11, (2E,4E)-5-(4-Nitro-phenyl)-penta-2,4-dienoic Acid (3-piperidin-1-yl-propyl)-amide] it was 225 to 226 °C; in that of `C/C(=C\C=C\C(=O)NCCCN1CCCCC1)c1ccc(Cl)c(Cl)c1` [Example 21, (2E,4E)-5-(3,4-Dichloro-phenyl)-hexa-2,4-dienoic Acid (3-piperidin-1-yl-propyl)amide], 65 to 70 °C.
On the same count and under the same terms, as for `O=C(/C=C/C=C/c1cc(Cl)cc(Cl)c1)NCCCN1CCCCC1` [Example 16, (2E,4E)-5-(3,5-Dichloro-phenyl)-penta-2,4-dienoic Acid (3-piperidin-1-yl-propyl)-amide], the figure is 186 to 187 °C; as for `O=C(/C=C/C=C(c1ccccc1)c1ccccc1)NCCCN1CCCCC1` [Example 22, (2E) -5,5-Diphenyl-penta-2,4-dienoic acid (3-piperidin-1-yl-propyl)-amide], 55 to 65 °C; as for `CC(/C=C/c1ccc(Cl)c(Cl)c1)=C\C(=O)NCCCN1CCCCC1` [Example 19, (2E,4E)-5-(3,4-Dichloro-phenyl)-3-methyl-penta-2,4-dienoic Acid (3-piperidin-1-yl-propyl)-amide], 165 to 170 °C.
For `CC(=C/C(=O)NCCCN1CCCCC1)/C=C/c1ccc(Cl)c(Cl)c1` [Example 20, (2Z,4E)-5-(3,4-Dichloro-phenyl)-3-methyl-penta-2,4-dienoic Acid (3-piperidin-1-yl-propyl)-amide], the melting point lay within 50 to 60 °C.
`O=C(/C=C/C=C/c1ccc(Cl)c(Cl)c1)NCCCN1CCCCC1` (as salt: HCl) [Example 1, 5-(3,4-Dichloro-phenyl)-penta-2,4-dienoic Acid (3-piperidin-1-yl-propyl)-amide-HCl]: the melting point lay within 192 to 194 °C.
On the same count and under the same terms, in the case of `O=C(/C=C/C=C/c1ccc(Cl)cc1)NCCCN1CCCCC1` [Example 12, (2E,4E)-5-(4-Chloro-phenyl)-penta-2,4-dienoic Acid (3-piperidin-1-yl-propyl)-amide] it was 60 to 62 °C.
Same read-out and setting: as for `O=C(/C=C/C=C/c1ccc2ccccc2c1)NCCCN1CCCCC1` [Example 15, (2E,4E)-5-Naphthalen-2-yl-penta-2,4-dienoic Acid (3-piperidin-1-yl-propyl)-amide], the figure is 150 to 156 °C.
The same measure, in the same setting: in the case of `O=C(/C=C/C=C/c1ccccc1)NCCCN1CCCCC1` [Example 13, (2E,4E)-5-Phenyl-penta-2,4-dienoic Acid (3-piperidin-1-yl-propyl)-amide] it was 111 to 115 °C; in that of `COc1ccc(/C=C/C=C/C(=O)NCCCN2CCCCC2)cc1` [Example 10, (2E,4E)-5-(4-Methoxy-phenyl)-penta-2,4-dienoic Acid (3-piperidin-1-yl-propyl)-amide], 69 to 73 °C.
In the case of `O=C(C=CC=Cc1ccc(Cl)c(Cl)c1)NCCCN1CCOCC1` [Example 2, 5-(3,4-Dichloro-phenyl)-penta-2,4-dienoic Acid (3-morpholin-4-yl-propyl)-amide], the melting point lay in the range of 130 to 132 °C. Besides, the IC50 (usually the concentration that inhibits the measured activity by half) in data set [1] was found to be 10.8 µM.
